Here are results for five compounds from US20260176320A1, “MODULATORS OF G-PROTEIN COUPLED RECEPTORS” (priority 2018, published 2026).

Read-outs that look alike come from different tables or passages of the source. Numbered stars: 1 amine (or outer) side, 2 acyl side, 3 side chain; on linkers, the order of the positions; unused ones are H or OH. Square brackets hold non-standard residues; d marks the D form. Side chains are listed from the residue outwards. Peptide text beside a SMILES is read from it. * marks the point of attachment. X4 = CC(C)(C(=O)NCCN1C(=O)CSC1=O)C(=O)*; γGlu = O=C(O)[C@H](CCC(=O)[*:2])N[*:1]; Palmitoyl = CCCCCCCCCCCCCCCC(=O)*; X6 = O=C(CSCC(=O)*)NCCN1CCCCC1=O; Aib = CC(C)(N)C(=O)O

Common to all, as to assay type: cell-based
For assay [1], the target named is T1, GLP-1R (Homo sapiens, UniProt P43220). Briefly: PathHunter β-arrestin assay. The method, boiled down:
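Recruitment of β-arrestin is measured by luminescence after cells, plated overnight, receive serially diluted agonist for 90 min at 37 °C in medium with 0.2% BSA. Detection reagent then develops for 3 h at room temperature, protected from light.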

In assay [2] the target is T1, GLP-1R. The assay can be described thus: HitHunter cAMP assay (GLP-1R). As to conditions: cAMP; for Emax: read-out: (Emax) GLP-1R. The method, boiled down: (§1)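 Agonist stimulation lasts 30 min at room temperature on 10,000 cells per well, with phosphodiesterase blocked by 625 μM IBMX. Accumulated cAMP is quantified by competitive antibody luminescence after overnight development.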
(Changes in cAMP serve as a functional read-out for many G protein-coupled receptors.)

Another assay deals with T2, GIP-R (Homo sapiens, UniProt P48546).
T2 sequence (P48546 22-466): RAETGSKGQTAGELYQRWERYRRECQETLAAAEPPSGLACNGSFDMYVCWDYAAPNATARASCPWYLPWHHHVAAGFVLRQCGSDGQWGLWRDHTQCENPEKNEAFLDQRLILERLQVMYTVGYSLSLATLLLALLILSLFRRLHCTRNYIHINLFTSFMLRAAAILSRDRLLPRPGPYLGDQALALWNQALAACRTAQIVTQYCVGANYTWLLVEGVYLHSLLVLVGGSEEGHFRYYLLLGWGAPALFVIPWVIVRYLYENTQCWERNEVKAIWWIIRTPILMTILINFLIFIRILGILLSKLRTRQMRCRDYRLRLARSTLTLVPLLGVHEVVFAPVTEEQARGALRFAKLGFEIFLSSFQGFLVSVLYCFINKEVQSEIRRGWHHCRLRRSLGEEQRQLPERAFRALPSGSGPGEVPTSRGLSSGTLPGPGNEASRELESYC
Briefly: HitHunter cAMP assay (GIP-R). Conditions: cAMP; for Emax: read-out: (Emax) GIP-R. The method in brief:
as §1

[3] abbreviates: PathHunter β-arrestin assay, read-out: β-arrestin activity EC50.
The mark [4] stands for this setting: Table 3, read-out: EC50 GLP-1R/nM.
Where [5] appears, read: Table 3A, read-out: EC50 GLP-1R/nM.
The mark [6] stands for this setting: Table 3, read-out: EC50 GIP-R/nM.
Where [7] appears, read: Table 3A, read-out: EC50 GIP-R/nM.

T1 sequence (P43220 24-463): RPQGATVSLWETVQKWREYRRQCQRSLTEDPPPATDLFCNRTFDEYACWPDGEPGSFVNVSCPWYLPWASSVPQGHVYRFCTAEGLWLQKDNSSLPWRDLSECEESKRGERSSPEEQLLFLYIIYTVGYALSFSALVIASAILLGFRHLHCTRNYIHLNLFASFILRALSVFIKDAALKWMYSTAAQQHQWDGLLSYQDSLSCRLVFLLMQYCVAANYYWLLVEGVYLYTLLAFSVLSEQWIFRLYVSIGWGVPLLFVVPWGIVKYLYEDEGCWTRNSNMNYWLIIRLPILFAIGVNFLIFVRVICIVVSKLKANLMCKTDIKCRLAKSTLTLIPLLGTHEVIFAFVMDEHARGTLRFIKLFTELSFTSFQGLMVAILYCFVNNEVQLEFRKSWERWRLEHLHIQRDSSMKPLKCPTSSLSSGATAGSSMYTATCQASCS

Regarding `CCCCCCCCCCCCCCCC(=O)N[C@@H](CCC(=O)NCCCC[C@H](NC(=O)[C@H](CO)NC(=O)[C@@H]1CCCN1C(=O)[C@@H]1CCCN1C(=O)[C@@H]1CCCN1C(=O)[C@H](C)NC(=O)CNC(=O)[C@H](CO)NC(=O)[C@H](CO)NC(=O)[C@@H]1CCCN1C(=O)CNC(=O)CNC(=O)[C@H](C)NC(=O)[C@H](CC(C)C)NC(=O)[C@H](CC(C)C)NC(=O)[C@H](Cc1c[nH]c2ccccc12)NC(=O)[C@H](CC(N)=O)NC(=O)[C@@H](NC(=O)[C@H](Cc1ccccc1)NC(=O)[C@H](CCC(=O)O)NC(=O)C(C)(C)NC(=O)[C@H](C)NC(=O)[C@H](C)NC(=O)[C@H](CCC(N)=O)NC(=O)[C@H](CCCCN)NC(=O)[C@H](CC(=O)O)NC(=O)[C@H](CC(C)C)NC(=O)[C@H](Cc1ccc(O)cc1)NC(=O)[C@@H](NC(=O)[C@H](CO)NC(=O)[C@H](Cc1ccc(O)cc1)NC(=O)[C@H](CC(=O)O)NC(=O)[C@H](CO)NC(=O)[C@@H](NC(=O)[C@H](Cc1ccccc1)NC(=O)[C@@H](NC(=O)CNC(=O)[C@H](CCC(=O)O)NC(=O)CCCC(=O)NCCN1C(=O)CSC1=O)[C@@H](C)O)[C@@H](C)O)[C@@H](C)CC)C(C)C)C(N)=O)C(=O)O` [Compound 155], the EC50 on GLP-1R [1] (setting [3]) was above 1000 nM; at GLP-1R [2] (setting [4]) it was 0.1 to 1 nM; on GLP-1R [2] (setting [5]), 0.1 to 1 nM; on GIP-R (setting [6]) it was 1 to 10 nM; at GIP-R (setting [7]), 1 to 10 nM. Also, the Emax (in general, the maximal effect, on the per cent scale that the assay sets) at GLP-1R [2] (Table 3) is 102%; at GLP-1R [2] (Table 3A) it was 102%; at GIP-R (Table 3), 80%; on GIP-R (Table 3A), 80%.

Regarding `CCCCCCCCCCCCCCCC(=O)N[C@@H](CCC(=O)NCCCC[C@H](NC(=O)[C@H](CO)NC(=O)[C@@H]1CCCN1C(=O)[C@@H]1CCCN1C(=O)[C@@H]1CCCN1C(=O)[C@H](C)NC(=O)CNC(=O)[C@H](CO)NC(=O)[C@H](CO)NC(=O)[C@@H]1CCCN1C(=O)CNC(=O)CNC(=O)[C@H](C)NC(=O)[C@H](CC(C)C)NC(=O)[C@H](CC(C)C)NC(=O)[C@H](Cc1c[nH]c2ccccc12)NC(=O)[C@H](CC(N)=O)NC(=O)[C@@H](NC(=O)[C@H](Cc1ccccc1)NC(=O)[C@H](CCC(=O)O)NC(=O)C(C)(C)NC(=O)[C@H](C)NC(=O)[C@H](C)NC(=O)[C@H](CCC(N)=O)NC(=O)[C@H](CCCCN)NC(=O)[C@H](CC(=O)O)NC(=O)[C@H](CC(C)C)NC(=O)[C@H](Cc1ccc(O)cc1)NC(=O)[C@@H](NC(=O)[C@H](CO)NC(=O)[C@H](Cc1ccc(O)cc1)NC(=O)[C@H](CC(=O)O)NC(=O)[C@H](CO)NC(=O)[C@@H](NC(=O)[C@H](Cc1ccccc1)NC(=O)[C@@H](NC(=O)CNC(=O)[C@H](CCC(=O)O)NC(=O)CCCC(=O)NCCN1CCCCC1=O)[C@@H](C)O)[C@@H](C)O)[C@@H](C)CC)C(C)C)C(N)=O)C(=O)O` [Compound 27], the EC50 at GLP-1R [1] (setting [3]) is above 1000 nM; on GLP-1R [2] (setting [4]), 0.1 to 1 nM; at GLP-1R [2] (setting [5]), 0.1 to 1 nM; at GIP-R (setting [6]), 1 to 10 nM; at GIP-R (setting [7]), 1 to 10 nM. For the same compound, the Emax is 95% on GLP-1R [2] (Table 3), 95% at GLP-1R [2] (Table 3A), 45% on GIP-R (Table 3) and 45% on GIP-R (Table 3A).

Regarding `CC[C@H](C)[C@H](NC(=O)[C@H](CO)NC(=O)[C@H](Cc1ccc(O)cc1)NC(=O)[C@H](CC(=O)O)NC(=O)[C@H](CO)NC(=O)[C@@H](NC(=O)[C@H](Cc1ccccc1)NC(=O)[C@@H](NC(=O)CNC(=O)[C@H](CCC(=O)O)NC(=O)CCCCCCN1C(=O)CSC1=O)[C@@H](C)O)[C@@H](C)O)C(=O)N[C@@H](Cc1ccc(O)cc1)C(=O)N[C@@H](CC(C)C)C(=O)N[C@@H](CC(=O)O)C(=O)N[C@@H](CCCCN)C(=O)N[C@@H](CCC(N)=O)C(=O)N[C@@H](C)C(=O)N[C@@H](C)C(=O)NC(C)(C)C(=O)N[C@@H](CCC(=O)O)C(=O)N[C@@H](Cc1ccccc1)C(=O)N[C@H](C(=O)N[C@@H](CC(N)=O)C(=O)N[C@@H](Cc1c[nH]c2ccccc12)C(=O)N[C@@H](CC(C)C)C(=O)N[C@@H](CC(C)C)C(=O)N[C@@H](C)C(=O)NCC(=O)NCC(=O)N1CCC[C@H]1C(=O)N[C@@H](CO)C(=O)N[C@@H](CO)C(=O)NCC(=O)N[C@@H](C)C(=O)N1CCC[C@H]1C(=O)N1CCC[C@H]1C(=O)N1CCC[C@H]1C(=O)N[C@@H](CO)C(=O)N[C@@H](CCCCN)C(N)=O)C(C)C` [Compound 176], the EC50 at GLP-1R [1] is above 1000 nM; at GLP-1R [2] (EC50 GLP-1R/nM, Table 3), 10 to 100 nM; at GLP-1R [2] (EC50 GLP-1R/nM, Table 3A), 10 to 100 nM; at GIP-R (EC50 GIP-R/nM, Table 3), above 1000 nM; on GIP-R (read-out: EC50 GIP-R/nM, Table 3A), above 1000 nM. Moreover, the Emax on GLP-1R [2] (Table 3) and at GLP-1R [2] (Table 3A) was 92% throughout. In addition, the Emax at 1 µM on GIP-R (read-out: (Emax) GIP-R at 1 μM, Table 3, at 1 μM) came to 1.8%.

As to `CCCCCCCCCCCCCCCC(=O)N[C@@H](CCC(=O)NCCCC[C@H](NC(=O)[C@H](CO)NC(=O)[C@@H]1CCCN1C(=O)[C@@H]1CCCN1C(=O)[C@@H]1CCCN1C(=O)[C@H](C)NC(=O)CNC(=O)[C@H](CO)NC(=O)[C@H](CO)NC(=O)[C@@H]1CCCN1C(=O)CNC(=O)CNC(=O)[C@H](C)NC(=O)[C@H](CC(C)C)NC(=O)[C@H](CC(C)C)NC(=O)[C@H](Cc1c[nH]c2ccccc12)NC(=O)[C@H](CC(N)=O)NC(=O)[C@@H](NC(=O)[C@H](Cc1ccccc1)NC(=O)[C@H](CCC(=O)O)NC(=O)C(C)(C)NC(=O)[C@H](C)NC(=O)[C@H](C)NC(=O)[C@H](CCC(N)=O)NC(=O)[C@H](CCCCN)NC(=O)[C@H](CC(=O)O)NC(=O)[C@H](CC(C)C)NC(=O)[C@H](Cc1ccc(O)cc1)NC(=O)[C@@H](NC(=O)[C@H](CO)NC(=O)[C@H](Cc1ccc(O)cc1)NC(=O)[C@H](CC(=O)O)NC(=O)[C@H](CO)NC(=O)[C@@H](NC(=O)[C@H](Cc1ccccc1)NC(=O)[C@@H](NC(=O)CNC(=O)[C@@H](CC(=O)O)NC(=O)CSCC(=O)NCCN1CCCCC1=O)[C@@H](C)O)[C@@H](C)O)[C@@H](C)CC)C(C)C)C(N)=O)C(=O)O` [Compound 218] (X6-[dD]GTFTSDYSIYLDKQAA[Aib]EFVNWLLAGGPSSGAPPPSK([γGlu-Palmitoyl])-NH2), the EC50 at GLP-1R [1] (setting [3]) is above 1000 nM; at GLP-1R [2] (setting [5]), 0.1 to 1 nM. The Emax on GLP-1R [2] (Table 3A) was 96%; on GIP-R (Table 3A), 19 to 23%.

Regarding `CC[C@H](C)[C@H](NC(=O)[C@H](CO)NC(=O)[C@H](Cc1ccc(O)cc1)NC(=O)[C@H](CC(=O)O)NC(=O)[C@H](CO)NC(=O)[C@@H](NC(=O)[C@H](Cc1ccccc1)NC(=O)[C@@H](NC(=O)CNC(=O)[C@H](CCC(=O)O)NC(=O)C(C)(C)C(=O)NCCN1C(=O)CSC1=O)[C@@H](C)O)[C@@H](C)O)C(=O)N[C@@H](Cc1ccc(O)cc1)C(=O)N[C@@H](CC(C)C)C(=O)N[C@@H](CC(=O)O)C(=O)N[C@@H](CCCCN)C(=O)N[C@@H](CCC(N)=O)C(=O)N[C@@H](C)C(=O)N[C@H](C(=O)NC(C)(C)C(=O)N[C@@H](CCC(=O)O)C(=O)N[C@@H](Cc1ccccc1)C(=O)N[C@H](C(=O)N[C@@H](CC(N)=O)C(=O)N[C@@H](Cc1c[nH]c2ccccc12)C(=O)N[C@@H](CC(C)C)C(=O)N[C@@H](CC(C)C)C(=O)N[C@@H](C)C(=O)NCC(=O)NCC(=O)N1CCC[C@H]1C(=O)N[C@@H](CO)C(=O)N[C@@H](CO)C(=O)NCC(=O)N[C@@H](C)C(=O)N1CCC[C@H]1C(=O)N1CCC[C@H]1C(=O)N1CCC[C@H]1C(=O)N[C@@H](CO)C(=O)N[C@@H](CCCCN)C(N)=O)[C@@H](C)CC)C(C)C` [Compound 132] (X4-EGTFTSDYSIYLDKQAV[Aib]EFINWLLAGGPSSGAPPPSK-NH2), the EC50 on GLP-1R [1] (setting [3]) is 10 to 1000 nM; at GLP-1R [2] (setting [4]), below 0.1 nM; at GLP-1R [2] (setting [5]) it was below 0.1 nM; on GIP-R (setting [6]) it was 1 to 10 nM; on GIP-R (setting [7]), 1 to 10 nM. Also, the Emax was in the range of 103 to 114% on GLP-1R [2] (Table 3), 103 to 114% on GLP-1R [2] (Table 3A), 61 to 64% on GIP-R (Table 3) and 61 to 64% at GIP-R (Table 3A).
